According to patent publication US20200046788A1, “COMPOSITIONS AND METHODS FOR TREATMENT OF INTESTINAL INFLAMMATION AND COLON CANCER” (University of Louisville Research Foundation, Inc., priority 2016, published 2020):

Assays:
intestinal tumorigenesis = test system: intestinal tumorigenesis
Experimental: Polyamine pools and Enzyme analyses. Tumor tissue was removed from intestine and was snap-frozen and stored at −70° C. Following removal of tumors, the normal small intestinal and colonic mucosa was scraped with a glass slide and snap-frozen. Frozen tissues were crushed into a fine powder. Specimens were homogenized in 1.2N perchloric acid and centrifuged to obtain the soluble supernatant extracts for polyamine analyses. Intracellular polyamine pools and acetylated polyamine pools were extracted with 1.2N perchloric acid, dansylated with dansyl chloride. The derivatized polyamines were separated on and analyzed using high-performance liquid chromatography on 150×4.6 mm ZORBAX SB-C18 column (Agilent) using methods described elsewhere. Polyamines were also quantitated by ELISA kit (Mybiosource, # MBS094198). For analysis of the enzyme activity, intestinal mucosal samples (4 mm^2) were immediately transferred to vials containing 0.5 ml of an ice-cold buffer [50 mM Tris-HCl (pH 7.5), 0.1 mM EDTA, and 0.1 mM pyridoxal phosphate)] and then homogenized and centrifuged. SSAT and ODC activities were determined by using C-labeled substrates and scintillation counting of end products produced as described previously (31) (or Cancer research SSAT mice).

DSS-induced colitis = experiment: Transfer of BMDCs treated with LN SFN knock-out / knock-in nanoparticles into mice with DSS colitis; assay type: in vivo, mouse
Experimental: FIGS. 7A-7F include graphs and images showing that BDN SFN protects colitis by inducing regulatory DCs, including graphs and images showing: (FIG. 7A) the lipids extracted from BDN-derived liposome-like nanoparticles (LN) or LN with SFN knock-out (LN-SFN^−/− or knock-in (LN-SFN^+/+) and a standard SFN were separated on a thin-layer chromatography plate and developed, where a representative image was scanned using an Odyssey Scanner; (FIGS. 7B-7D) BMDCs that were treated with CBA (20 μg/ml) for 24-48 hr in the presence of DMSO, LN-SFN^−/− or LN-SFN^+/+ and were injected i.v. […] (FIG. 7E) cytokine analysis by qRT-PCR of RNA recovered from colonic LPL1; and (FIG. 7F) the cell number of CD11b^+ DCs isolated from colon and MLN in DSS-induced colitis after adoptive transfer, where data are mean±SEM. (n=5), *P<0.05, **P<0.01 (Student's t-test). Lipid extraction, TLC and lipidomic analysis. Total lipid extraction from BDNs was performed according to the method of Bligh and Dyer, and the lipids were dissolved in chloroform or methanol for analysis. […] Developed plates were initially air-dried, then sprayed with CuSO4-phosphoric acid reagent (10% CuSO4 in 8% phosphoric acid), and followed by charring at 100° C. for 10 min. […] Total lipids were determined using the phosphate assay as described previously. […] Colitis was assessed as described above.

[1] = test system: human monocyte-derived DCs; settings: LPS 100 ng/ml, western blot
Experimental: Western blot analysis. […] Images have been cropped for presentation.
(§1) Generation of mouse and human DCs. For the generation of mouse DCs, bone marrow cells were harvested from the femurs and tibias of mice and cultured in 6-well tissue culture plates (Costar) for 8 days in complete medium supplemented with 20 ng/ml GM-CSF and 10 ng/ml IL-4. BDNs, BDN-derived lipid or SFN was added to some wells on day 0. To obtain human DCs, peripheral blood mononuclear cells were isolated from healthy donors by Ficoll-Hypaque Plus (GE Healthcare). These studies were approved by the Institutional Review Board of University of Louisville. Monocytes were purified by a discontinuous Percoll gradient (GE Healthcare) and positive selection with the Monocyte Isolation kit (purity, >90%; Miltenyi Biotec). Monocytes were cultured in RPMI-1640 complete medium supplemented with 10% (vol/vol) heat-inactivated PCS, gentamicin ([…]), 2-mercaptoethanol (50 μM) and L-glutamine (2 mM; all from Gibco) containing IL-4 (5 ng/ml; Sigma) and recombinant human GM-CSF (35 ng/ml; Sigma) with or without SFN (10 μM). In some experiments, DCs were exposed for 24 h to LPS (100 ng/ml) with or without SFN.

CD4+ T cells = test system: CD4+ T cells
Experimental: as §1

BMDCs = test system: BMDCs
Experimental: as §1

MC38 colon cancer cells = MC38 colon cancer cells treated with SFN or BDN-derived lipids (RT-PCR); assay type: cell-based, mouse
Experimental: RNA extraction and PCR. Total RNA was isolated from the small intestine and colon or tumor tissue using the Qiagen RNeasy RNA isolation Kit and was used to synthesize cDNA. RNA (1 μg) was reverse-transcribed with Superscript III and random primers (Invitrogen). For quantitation of genes of interest, cDNA samples were amplified in a CFX96 Realtime System (Bio-Rad Laboratories, Hercules, Calif., USA) using SYBR Green Master Mix (Invitrogen) and specific primers (Table 2) according to the manufacturer's instructions. Fold changes in mRNA expression between treatments and controls were determined by the […] as described. Results for each sample were normalized to the concentration of GAPDH mRNA measured in the same samples and expressed as fold increase over baseline levels, which are set at a value of 1. Differences between groups were determined using a two-sided Student's t-test and one-way ANOVA. Error bars on plots represent±SEM, unless otherwise noted. All primers were purchased from Eurofins MWG Operon.

[2] = SFN 10 μM + GM-CSF vs GM-CSF alone

For `NCCCCN` [putrescine], the “polyamines pool in the small intestine” value (intestinal tumorigenesis; 1% in drinking water) was “large increase”, the tumor number (intestinal tumorigenesis; APC^Min/+CSN8^fl/fl mice, vs control mice) was “an increase, but not statistically significant increase” and the “epithelial cell proliferation (Ki-67) in the small intestines” value (intestinal tumorigenesis; APC^Min/+CSN8^ΔIEC) was “stimulated”. The “polyp numbers in the small intestines” value (intestinal tumorigenesis; APC^Min/+CSN8^ΔIEC) was “strikingly increased”, the “expression of nuclear Stat3, c-Myc and p21^(Cip1/WAF1)” value (intestinal tumorigenesis; APC^Min/+CSN8^ΔIEC mice, to that seen in APC^Min/+CSN8^fl/fl) was “restored the expression” and the “polyp number in the colon” value (intestinal tumorigenesis; mouse, in vivo) was “no effect”.
In the case of `C[S+]([O-])CCCCN=C=S` (stereo not drawn) [SFN, Sulforaphane], the “numbers of transferred BMDC reaching the MLNs and colon” value (DSS-induced colitis) was “lower numbers”, the “phosphorylation of AMPK at Thr172” value [1] was “increased phosphorylation of AMPK at Thr172” and the “phosphorylation of S6 and p70S6K” value [1] was “decreased S6 phosphorylation”. The “CD25 on CD4+ T cells induced by DC^SFN” value (CD4+ T cells; vs DC^DMSO) was “lower expression”, the “PD-1 on CD4+ T cells induced by DC^SFN” value (CD4+ T cells; vs DC^DMSO) was “higher levels” and the “IFN-γ production by CD4+ T cells primed with LPS-DC^SFN” value (CD4+ T cells; vs LPS-treated DC^DMSO) was “less IFN-γ”. For the same molecule, the “IL-10 production by CD4+ T cells primed with LPS-DC^SFN” value (CD4+ T cells; vs LPS-treated DC^DMSO) was “more IL-10”, the “IFN-γ production by CD4 T cells primed with DC^SFN” value (CD4+ T cells; without LPS, vs DC^DMSO) was “negligible production of IFN-γ” and the “IL-10 production (ELISA)” value (BMDCs; LPS 18 h, vs LPS alone) was “more IL-10”. The “IL-12, IL-23 production (ELISA)” value (BMDCs; LPS 18 h, vs LPS alone) was “produced less IL-12, IL-23”, the “expression of CD11c” value (BMDCs; [2]) was “lower expression of CD11c” and the “expression of PD-L1” value (BMDCs; [2]) was “higher expression of PD-L1”. The “expression of CSN8 and ODC” value (MC38 colon cancer cells; RT-PCR, vs DMSO) was “inhibited”, the “expression of Nrf2 and SSAT1” value (MC38 colon cancer cells; RT-PCR, vs DMSO) was “strongly activated” and the “increase in SSAT1 caused by SFN” value (MC38 colon cancer cells; knockdown of both Nrf2 and CSN8) was “significantly inhibited the increase”.
